Our source for the Ki values is BindingDB's records for doi:10.1124/jpet.104.065391 (University of Arizona, 2004).

pKi: −log10 of the molar value. Where a SMILES comes first, the peptide text is derived from it. [ ]: non-standard residue; d: D form. dNle = CCCC[C@@H](N)C(=O)O

Assay [1] has as its target Kappa-type opioid receptor (Homo sapiens, UniProt P41145).
Assay [2] addresses Mu-type opioid receptor (Homo sapiens, UniProt P35372).

Mu-type opioid receptor, sequence (P35372 whole entry): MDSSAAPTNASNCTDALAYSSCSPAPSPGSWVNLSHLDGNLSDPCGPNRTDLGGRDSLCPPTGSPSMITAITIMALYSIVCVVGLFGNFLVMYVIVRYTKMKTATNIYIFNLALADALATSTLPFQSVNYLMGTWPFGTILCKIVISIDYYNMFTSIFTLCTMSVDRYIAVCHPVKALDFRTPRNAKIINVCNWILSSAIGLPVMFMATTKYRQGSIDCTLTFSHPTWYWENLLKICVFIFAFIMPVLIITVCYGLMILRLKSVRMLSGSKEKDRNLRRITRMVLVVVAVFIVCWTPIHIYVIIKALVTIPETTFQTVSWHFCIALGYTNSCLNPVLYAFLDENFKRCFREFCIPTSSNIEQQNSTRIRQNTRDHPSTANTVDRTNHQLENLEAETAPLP
Kappa-type opioid receptor, sequence (P41145 whole entry): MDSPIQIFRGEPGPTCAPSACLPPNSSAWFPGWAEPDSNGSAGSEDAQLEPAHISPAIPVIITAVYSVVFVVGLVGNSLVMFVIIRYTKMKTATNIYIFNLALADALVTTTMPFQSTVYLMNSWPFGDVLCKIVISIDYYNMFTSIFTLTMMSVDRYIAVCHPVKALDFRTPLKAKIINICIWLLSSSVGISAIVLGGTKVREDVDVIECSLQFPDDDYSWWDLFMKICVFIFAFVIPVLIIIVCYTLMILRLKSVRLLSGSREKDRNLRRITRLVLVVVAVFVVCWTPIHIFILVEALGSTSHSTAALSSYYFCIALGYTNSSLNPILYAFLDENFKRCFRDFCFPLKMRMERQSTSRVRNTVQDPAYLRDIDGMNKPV

The term pKi denotes the negative decadic logarithm of the Ki, by convention in mol/L. On to `CCCC[C@@H](NC(=O)[C@@H](Cc1ccccc1)NC(=O)[C@H](N)Cc1ccccc1)C(=O)N[C@H](CCCNC(=N)N)C(N)=O` [d-Phe-d-Phe-d-Nle-d-Arg-NH2] (H-[dF][dF][dNle][dR]-NH2), for which the pKi in assay [1] is 9.84; in assay [2], 5.34.
